Source: paper PMC6028563, “Probing Substituents in the 1- and 3-Position: Tetrahydropyrazino-Annelated Water-Soluble Xanthine Derivatives as Multi-Target Drugs With Potent Adenosine Receptor Antagonistic Activity” (Frontiers in Chemistry, 2018)

Experiments:
human A1 AR = target: T1, human A1 AR (Homo sapiens, UniProt P30542); assay: Radioligand binding assay at human A1 AR vs. [^3H]CCPA; details: human (h); CHO cell membranes; n = 3
T1 construct: expressed in transfected cells; host or cells: CHO cells
T1 sequence (P30542 1-326): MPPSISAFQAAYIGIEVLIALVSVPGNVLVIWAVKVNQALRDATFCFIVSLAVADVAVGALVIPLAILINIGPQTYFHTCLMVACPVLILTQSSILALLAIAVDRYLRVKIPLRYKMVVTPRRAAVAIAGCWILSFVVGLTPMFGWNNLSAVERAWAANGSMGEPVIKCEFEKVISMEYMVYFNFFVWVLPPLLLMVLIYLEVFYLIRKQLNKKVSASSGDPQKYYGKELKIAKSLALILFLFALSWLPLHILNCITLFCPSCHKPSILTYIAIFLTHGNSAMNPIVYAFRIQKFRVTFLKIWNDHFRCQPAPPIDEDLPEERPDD
Procedure: (§1) Membrane preparations and radioligand binding assays at rat A1 (rat brain cortex) and rat A2A ARs (rat brain striatum) were performed as previously described (Ozola et al., [2003]; Alnouri et al., [2015]). For assays at human A1, A2A, A2B, and A3 ARs, CHO cell membranes expressing one of the human AR subtypes were used as previously reported (Klotz et al., [1998]; Alnouri et al., [2015]; De Filippo et al., [2016]).
(§2) The synthesized tetrahydropyrazino[2,1-f ]purinediones 13–20 were evaluated in radioligand binding assays for their affinity to A1 ARs of rat brain cortical membrane and to A2A ARs of rat brain striatal membrane preparations. Selected compounds were further investigated for their affinity to human A1 and A2A ARs recombinantly expressed in Chinese hamster ovary (CHO) cells. All compounds were additionally investigated for their affinity to human A2B and A3 ARs recombinantly expressed in CHO cells to determine their AR subtype selectivity. […] It is well known that all xanthine derivatives lacking a ribose moiety, including tricyclic compounds, can only block ARs, but never act as AR agonists; therefore, additional functional studies were not required. […] Potent MAO-B inhibitors were additionally investigated for inhibition of human MAO-A to assess their selectivity. Results are presented in Tables 1–6, and data of standard ligands are included for comparison.

rat A1 AR = target: T2, rat A1 AR (Rattus norvegicus, UniProt P25099); assay: Radioligand binding assay at rat A1 AR (rat brain cortex) vs. [^3H]CCPA; details: rat (r); for Ki: rat brain cortex, n = 3; for inhibition at 1.5 µM: read-out: % inhibition of radioligand binding at indicated concentration, A1 vs. [^3H]CCPA, at 1,500 nM
T2 construct: A1 ARs of rat brain cortical membrane; from tissue; host or cells: rat brain cortex membranes
T2 sequence (P25099 1-326): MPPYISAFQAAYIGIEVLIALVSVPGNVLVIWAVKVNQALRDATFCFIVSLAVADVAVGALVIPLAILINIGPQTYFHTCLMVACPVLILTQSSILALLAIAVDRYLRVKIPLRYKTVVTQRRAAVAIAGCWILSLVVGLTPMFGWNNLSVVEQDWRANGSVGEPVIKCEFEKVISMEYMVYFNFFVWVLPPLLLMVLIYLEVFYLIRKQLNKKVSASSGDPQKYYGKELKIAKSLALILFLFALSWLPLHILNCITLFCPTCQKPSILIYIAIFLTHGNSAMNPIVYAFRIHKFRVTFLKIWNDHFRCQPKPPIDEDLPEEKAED
Procedure: as §1, §2

rat A2A AR = target: T3, rat A2A AR (Rattus norvegicus, UniProt P30543); assay: Radioligand binding assay at rat A2A AR (rat brain striatum) vs. [^3H]MSX-2; details: rat (r); for % inhibition of radioligand binding at indicated concentration, A2A vs. [^3H]MSX-2: at 1,000 nM; for Ki: rat brain striatum, n = 3, read-out: Ki ± SEM, A2A vs. [^3H]MSX-2
T3 construct: A2A ARs of rat brain striatal membrane preparations; from tissue; host or cells: rat brain striatum membranes
T3 sequence (P30543 whole entry): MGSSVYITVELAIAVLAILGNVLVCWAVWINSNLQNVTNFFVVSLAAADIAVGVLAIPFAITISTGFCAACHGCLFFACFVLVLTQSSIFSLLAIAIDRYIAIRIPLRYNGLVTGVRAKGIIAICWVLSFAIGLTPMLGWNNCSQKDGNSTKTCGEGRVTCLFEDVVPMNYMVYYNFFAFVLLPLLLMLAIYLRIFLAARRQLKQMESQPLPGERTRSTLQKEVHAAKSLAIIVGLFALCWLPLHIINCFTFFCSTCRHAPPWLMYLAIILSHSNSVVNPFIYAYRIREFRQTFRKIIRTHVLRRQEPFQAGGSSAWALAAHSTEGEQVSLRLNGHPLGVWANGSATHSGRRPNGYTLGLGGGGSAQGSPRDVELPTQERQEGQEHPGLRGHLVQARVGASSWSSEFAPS
Procedure: as §1, §2

human A2B AR = target: T4, human A2B AR (Homo sapiens, UniProt P29275); assay: Radioligand binding assay at human A2B AR vs. [^3H]PSB-603; details: for Ki: CHO cell membranes, n = 2 (n = 3 where marked a), read-out: Ki ± SEM, A2B vs. [^3H]PSB-603; for inhibition at 1 µM: at 1,000 nM, read-out: % inhibition of radioligand binding at indicated concentration, A2B vs. [^3H]PSB-603
T4 construct: expressed in transfected cells; host or cells: CHO cells
T4 sequence (P29275 1-332): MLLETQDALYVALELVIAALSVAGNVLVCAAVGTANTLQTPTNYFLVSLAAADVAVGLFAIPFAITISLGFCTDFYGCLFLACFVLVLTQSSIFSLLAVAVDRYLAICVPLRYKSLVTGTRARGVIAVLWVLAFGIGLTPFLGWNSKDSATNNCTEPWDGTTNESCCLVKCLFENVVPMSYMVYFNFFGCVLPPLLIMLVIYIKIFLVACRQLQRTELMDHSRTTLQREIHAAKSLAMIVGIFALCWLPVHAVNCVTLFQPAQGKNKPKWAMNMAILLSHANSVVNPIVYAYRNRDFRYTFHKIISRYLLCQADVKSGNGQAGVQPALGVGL
Procedure: as §1, §2

human A3 AR = target: T5, human A3 AR (Homo sapiens, UniProt P0DMS8); assay: Radioligand binding assay at human A3 AR vs. [^3H]PSB-11; details: for Ki: CHO cell membranes, n = 2 (n = 3 where marked a), read-out: Ki ± SEM, A3 vs. [^3H]PSB-11; for inhibition at 10 µM: at 10,000 nM, read-out: % inhibition of radioligand binding at indicated concentration, A3 vs. [^3H]PSB-11
T5 construct: expressed in transfected cells; host or cells: CHO cells
T5 sequence (P0DMS8 1-318): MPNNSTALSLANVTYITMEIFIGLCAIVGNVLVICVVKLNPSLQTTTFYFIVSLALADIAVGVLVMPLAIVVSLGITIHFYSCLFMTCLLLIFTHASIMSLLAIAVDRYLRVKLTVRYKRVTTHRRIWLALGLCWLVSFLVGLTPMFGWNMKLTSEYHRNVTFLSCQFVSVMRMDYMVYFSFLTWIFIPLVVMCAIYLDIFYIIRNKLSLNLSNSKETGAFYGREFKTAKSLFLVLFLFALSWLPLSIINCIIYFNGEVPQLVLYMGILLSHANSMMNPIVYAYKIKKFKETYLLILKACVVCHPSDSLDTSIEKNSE
Procedure: as §1, §2

recombinant human MAO-B = target: T6, recombinant human MAO-B (Homo sapiens, UniProt P27338); assay: Monoamine oxidase assay (Amplex Red), MAO-B; type: biochemical; details: for inhibition at 10 µM: at 10,000 nM (10 μM), read-out: % inhibition at indicated concentration, Human MAO-B; for IC50: read-out: IC50 ± SEM, Human MAO-B
T6 construct: purchased Sigma-Aldrich M7441; host or cells: baculovirus-infected insect cells
T6 sequence (P27338 1-520): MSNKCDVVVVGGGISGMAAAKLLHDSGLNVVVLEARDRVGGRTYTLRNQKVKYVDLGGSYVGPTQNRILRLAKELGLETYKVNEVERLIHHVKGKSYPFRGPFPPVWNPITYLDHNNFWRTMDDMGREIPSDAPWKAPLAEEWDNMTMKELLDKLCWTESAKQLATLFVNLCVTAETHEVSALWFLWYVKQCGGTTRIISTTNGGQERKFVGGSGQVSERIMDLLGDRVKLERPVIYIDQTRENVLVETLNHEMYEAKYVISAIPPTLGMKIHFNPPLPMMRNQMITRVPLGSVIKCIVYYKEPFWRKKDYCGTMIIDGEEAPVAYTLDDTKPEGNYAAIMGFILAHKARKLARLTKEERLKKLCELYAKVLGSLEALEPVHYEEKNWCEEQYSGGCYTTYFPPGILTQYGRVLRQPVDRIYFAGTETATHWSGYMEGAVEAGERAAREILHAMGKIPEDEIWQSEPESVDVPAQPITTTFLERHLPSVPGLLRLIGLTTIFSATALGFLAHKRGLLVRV
Procedure: (§3) The determination of MAO-A and MAO-B inhibition was performed using commercially available recombinant human MAO-A and MAO-B enzymes expressed in baculovirus-infected insects sells (Sigma-Aldrich, M7316 and M7441) applying the commercially available Amplex® Red monoamine oxidase assay kit (Invitrogen A12214). The assays were performed as previously described. The determination of rat MAO-B inhibition was performed using mitochondrial-enriched fractions from male Sprague Dawley rat livers. […]

recombinant human MAO-A = target: T7, recombinant human MAO-A (Homo sapiens, UniProt P21397); assay: Monoamine oxidase assay (Amplex Red), MAO-A; type: biochemical; details: for inhibition at 10 µM: at 10,000 nM, read-out: % inhibition at indicated concentration, Human MAO-A; for IC50: n = 3, read-out: IC50 ± SEM, Human MAO-A
T7 construct: purchased Sigma-Aldrich M7316; host or cells: baculovirus-infected insect cells
T7 sequence (P21397 1-527): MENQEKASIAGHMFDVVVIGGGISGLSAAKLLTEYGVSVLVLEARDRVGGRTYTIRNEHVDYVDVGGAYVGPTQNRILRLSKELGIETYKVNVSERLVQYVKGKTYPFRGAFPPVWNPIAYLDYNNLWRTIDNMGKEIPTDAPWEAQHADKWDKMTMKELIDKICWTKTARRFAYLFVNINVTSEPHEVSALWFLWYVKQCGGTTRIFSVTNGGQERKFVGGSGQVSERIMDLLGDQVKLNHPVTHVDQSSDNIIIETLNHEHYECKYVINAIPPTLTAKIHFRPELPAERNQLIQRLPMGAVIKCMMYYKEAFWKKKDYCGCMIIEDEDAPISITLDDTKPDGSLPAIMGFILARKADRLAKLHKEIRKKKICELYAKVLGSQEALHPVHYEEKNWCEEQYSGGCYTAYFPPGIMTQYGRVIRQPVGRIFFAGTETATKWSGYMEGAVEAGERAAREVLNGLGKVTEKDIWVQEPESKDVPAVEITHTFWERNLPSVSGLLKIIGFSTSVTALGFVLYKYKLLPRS
Procedure: as §3

Compound | Ki (human A1 AR) [µM] | Ki (rat A1 AR) [µM] | % inhibition of radioligand binding at indicated concentration, A2A vs. [^3H]MSX-2 (rat A2A AR) [%] | Ki (rat A2A AR) [µM] | Ki (human A2B AR) [µM] | inhibition at 1 µM (human A2B AR) [%] | Ki (human A3 AR) [µM] | inhibition at 10 µM (human A3 AR) [%] | inhibition at 10 µM (recombinant human MAO-B) [%] | IC50 (recombinant human MAO-B; n = 3) [µM] | inhibition at 1.5 µM (rat A1 AR) [%] | inhibition at 10 µM (recombinant human MAO-A) [%] | IC50 (recombinant human MAO-A) [µM] | IC50 ± SEM, Human MAO-B (recombinant human MAO-B; n = 3)
CCn1c(=O)c2c(nc3n2CCN(Cc2ccc(F)c(C(F)(F)F)c2)C3)n(CC)c1=O [Compound 15i, 1,3-diethyl-8-(4-fluoro-3-(trifluoromethyl)benzyl)-6,7,8,9-tetrahydropyrazino[2,1-f]purine-2,4(1H,3H)-dione] | – | > 1.5 | 30 | > 1 | > 1 | 33 | > 10 | 36 | – | 3.07 | 19 | 8 | > 10 | –
CCn1c(=O)c2c(nc3n2CCN(Cc2cccc(F)c2)C3)n(CC)c1=O [Compound 15b, 1,3-diethyl-8-(3-fluorobenzyl)-6,7,8,9-tetrahydropyrazino[2,1-f]purine-2,4(1H,3H)-dione] | 0.207 ± 0.011 | 0.0472 ± 0.0199 | – | 1.58 | > 1 | 9 | 7.02 | – | 49 | ≥ 10 | – | – | – | –
CCn1c(=O)c2c(nc3n2CCN(Cc2c(Cl)cccc2Cl)C3)n(C)c1=O [Compound 14k, 8-(2,6-dichlorobenzyl)-3-ethyl-1-methyl-6,7,8,9-tetrahydropyrazino[2,1-f]purine-2,4(1H,3H)-dione] | 0.197 ± 0.005 | 0.142 ± 0.032 | – | 1.1 | > 1 | 8 | > 10 | 17 | 43 | > 10 | – | – | – | –

Other lines, results leading:

Ki (human A1 AR) [µM] | Ki (rat A1 AR) [µM] | % inhibition of radioligand binding at indicated concentration, A2A vs. [^3H]MSX-2 (rat A2A AR) [%] | Ki (rat A2A AR) [µM] | Ki (human A2B AR) [µM] | inhibition at 1 µM (human A2B AR) [%] | Ki (human A3 AR) [µM] | inhibition at 10 µM (human A3 AR) [%] | inhibition at 10 µM (recombinant human MAO-B) [%] | IC50 (recombinant human MAO-B; n = 3) [µM] | inhibition at 1.5 µM (rat A1 AR) [%] | inhibition at 10 µM (recombinant human MAO-A) [%] | IC50 (recombinant human MAO-A) [µM] | IC50 ± SEM, Human MAO-B (recombinant human MAO-B; n = 3) | Compound
5.12 | 0.164 ± 0.028 | 7 | > 1 | > 1 | 9 | > 10 | 37 | 24 | > 10 | – | – | – | – | CCn1c(=O)c2c(nc3n2CCN(Cc2ccc(F)cc2)C3)n(C)c1=O [Compound 14h, 3-ethyl-8-(4-fluorobenzyl)-1-methyl-6,7,8,9-tetrahydropyrazino[2,1-f]purine-2,4(1H,3H)-dione]
– | > 1.5 | 19 | > 1 | > 1 | 1 | 17.2 | – | – | 2.88 | 5 | 13 | > 10 | – | Cn1c(=O)[nH]c(=O)c2c1nc1n2CCN(CCc2ccc(Cl)cc2Cl)C1 [Compound 13f, 8-(2,4-dichlorophenethyl)-1-methyl-6,7,8,9-tetrahydropyrazino[2,1-f]purine-2,4(1H,3H)-dione]
– | > 1.5 | 10 | > 1 | > 1 | 1 | > 10 | 41 | – | 0.864 ± 0.064 | 3 | 12 | > 10 | submicromolar range | Cn1c(=O)[nH]c(=O)c2c1nc1n2CCN(CCc2ccc(Cl)c(Cl)c2)C1 [Compound 13g, 8-(3,4-dichlorophenethyl)-1-methyl-6,7,8,9-tetrahydropyrazino[2,1-f]purine-2,4(1H,3H)-dione]
– | > 1.5 | -23 | > 1 | > 1 | 1 | 14.7 | – | – | 4.53 | 17 | 13 | > 10 | – | Cn1c(=O)[nH]c(=O)c2c1nc1n2CCN(Cc2ccccc2Br)C1 [Compound 13a, 8-(2-bromobenzyl)-1-methyl-6,7,8,9-tetrahydropyrazino[2,1-f]purine-2,4(1H,3H)-dione]
